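Tested at 5 concentrations; 48 h exposure; 96-well plates; endpoints linearly interpolated, else capped at highest concentration. GI50: concentration for 50% inhibition of growth.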 Active and inactive are the calls of the source. Cut-off read from the data, not from the text of the source: active = GI50 up to about 1.1 µM and inactive = higher.
Experiments:
Assay in all cases: NCI anticancer screen, dose series, 48 h
SN12C = tested on: SN12C
CCRF-CEM = tested on: CCRF-CEM
UACC-257 = tested on: UACC-257
OVCAR-3 = tested on: OVCAR-3
SW-620 = tested on: SW-620
A498 = tested on: A498
SK-MEL-28 = tested on: SK-MEL-28
HT-29 = tested on: HT-29
A549 = tested on: A549
OVCAR-8 = tested on: OVCAR-8
UACC-62 = tested on: UACC-62
SNB-75 = tested on: SNB-75
NCI-H23 = tested on: NCI-H23
HCC 2998 = tested on: HCC 2998
NCI-H226 = tested on: NCI-H226
IGROV-1 = tested on: IGROV-1
HOP-92 = tested on: HOP-92
SNB-19 = tested on: SNB-19
SK-OV-3 = tested on: SK-OV-3

Measured: GI50

O=S(=O)(O)c1ccc(O)c2ncc(Cl)cc12
inactive: SN12C > 100 µM | CCRF-CEM > 100 µM | UACC-257 > 100 µM | OVCAR-3 > 100 µM | SW-620 > 100 µM | A498 > 100 µM | SK-MEL-28 > 100 µM | HT-29 > 100 µM | A549 > 100 µM | OVCAR-8 > 100 µM | UACC-62 > 100 µM | SNB-75 > 100 µM | NCI-H23 > 100 µM | HCC 2998 > 100 µM | NCI-H226 > 100 µM | IGROV-1 > 100 µM | HOP-92 > 100 µM | SNB-19 > 100 µM

CCCCCCCCCCCCCCCCOCC(CC(F)(F)P(=O)(OCC)OCC)OC(C)=O (stereo not drawn)
inactive: SN12C 19.7 µM | SK-OV-3 19.6 µM | UACC-257 17.5 µM | OVCAR-3 17.5 µM | SW-620 14.8 µM | A498 12.5 µM | SK-MEL-28 17.8 µM | HT-29 14.9 µM | A549 12 µM | UACC-62 15.3 µM | SNB-75 17.5 µM | NCI-H23 16.9 µM | HCC 2998 8.69 µM | NCI-H226 14.4 µM | IGROV-1 8.49 µM | HOP-92 10.3 µM | SNB-19 3.21 µM

COc1ccccc1/C=C1\CCC(CCN2CCOCC2)C1=O (stereo not drawn)
inactive: SN12C > 100 µM | CCRF-CEM 38.7 µM | UACC-257 > 100 µM | OVCAR-3 > 100 µM | SW-620 > 100 µM | A498 > 100 µM | SK-MEL-28 > 100 µM | HT-29 50.1 µM | A549 > 100 µM | OVCAR-8 > 100 µM | UACC-62 > 100 µM | SNB-75 49 µM | NCI-H23 > 100 µM | HCC 2998 66.1 µM | NCI-H226 > 100 µM | IGROV-1 > 100 µM | HOP-92 > 100 µM | SNB-19 > 100 µM

O=C(Nc1ccc(Cl)c(Cl)c1)C(=O)C(C(=O)c1ccccc1-c1ccccc1)C1OC(=O)c2ccccc21 (stereo not drawn)
inactive: CCRF-CEM 12.1 µM | SK-OV-3 28.5 µM | UACC-257 18.9 µM | OVCAR-3 13.1 µM | SW-620 19 µM | A498 22.9 µM | SK-MEL-28 > 100 µM | HT-29 29.8 µM | A549 21.3 µM | OVCAR-8 17.4 µM | UACC-62 15.8 µM | SNB-75 13 µM | NCI-H23 10.6 µM | HCC 2998 14.5 µM | NCI-H226 3.04 µM | IGROV-1 24.2 µM | HOP-92 12.9 µM

CCCCCCCCCCCCCS(=O)(=O)O
inactive: SN12C > 100 µM | CCRF-CEM > 100 µM | UACC-257 > 100 µM | OVCAR-3 > 100 µM | SW-620 > 100 µM | A498 > 100 µM | SK-MEL-28 > 100 µM | HT-29 > 100 µM | A549 > 100 µM | OVCAR-8 > 100 µM | UACC-62 > 100 µM | SNB-75 > 100 µM | NCI-H23 > 100 µM | HCC 2998 > 100 µM | NCI-H226 > 100 µM | IGROV-1 > 100 µM | HOP-92 > 100 µM | SNB-19 > 100 µM

CCOC(=O)/C(C#N)=C/Nc1c(C)n(C)n(-c2ccccc2)c1=O
inactive: SN12C > 100 µM | CCRF-CEM > 100 µM | SK-OV-3 > 100 µM | UACC-257 > 100 µM | OVCAR-3 > 100 µM | SW-620 > 100 µM | A498 > 100 µM | A549 > 100 µM | OVCAR-8 > 100 µM | UACC-62 > 100 µM | NCI-H23 > 100 µM | HCC 2998 > 100 µM | NCI-H226 43.4 µM | IGROV-1 > 100 µM | HOP-92 > 100 µM
